Measurements taken from PMC12558477, “Flavin affinity for the reductase HpaC differentially sensitizes Neisseria gonorrhoeae during Type IV pilus-dependent killing” (PLOS Pathogens, 2025).

Target: T1, HpaC (Gc HpaC, FA1090 HpaC) (Neisseria gonorrhoeae, UniProt Q5FAG3)
T1 construct: gene NGO_0059; His6-tagged full-length HpaC from pET28a, expressed in E. coli BL21(DE3); 166 residues; co-purifies with FAD; oligomer not measured (modelled on TftC homodimer)
Assay: FAD released from purified protein by heat denaturation, coupled-enzyme fluorescent probe kit
Type: binding
Conditions: 0.5 µM protein, with and without 95 °C for 5 min; room temperature; co-purified FAD

T1 sequence (Q5FAG3 entry or part of it): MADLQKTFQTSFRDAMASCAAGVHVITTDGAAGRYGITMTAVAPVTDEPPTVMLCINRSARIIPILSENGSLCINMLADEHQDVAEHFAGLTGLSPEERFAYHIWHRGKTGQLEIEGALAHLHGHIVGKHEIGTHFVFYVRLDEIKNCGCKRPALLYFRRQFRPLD

## Cc1cc2nc3c(=O)[nH]c(=O)nc-3n(C[C@H](O)[C@H](O)[C@H](O)COP(=O)(O)OP(=O)(O)OC[C@H]3O[C@@H](n4cnc5c(N)ncnc54)[C@H](O)[C@@H]3O)c2cc1C [FAD]
  FAD released from purified protein by heat denaturation, coupled-enzyme fluoresc: We purified Gc HpaC and noticed an FAD signal in the absence of heat
